Like-named read-outs stand apart in the source and are kept apart here.
Experiments:
[1] = target: T1, GLS1 (purified recombinant human GAC) (Homo sapiens, UniProt O94925); assay: GLS1 Enzymatic Activity Assay (dual-coupled enzymatic assay); assay type: biochemical; details: 50 mM potassium phosphate, 1 mM glutamine, read-out: IC50 against GLS1
T1 sequence (O94925 55-598 isoform O94925-3 limits assumed): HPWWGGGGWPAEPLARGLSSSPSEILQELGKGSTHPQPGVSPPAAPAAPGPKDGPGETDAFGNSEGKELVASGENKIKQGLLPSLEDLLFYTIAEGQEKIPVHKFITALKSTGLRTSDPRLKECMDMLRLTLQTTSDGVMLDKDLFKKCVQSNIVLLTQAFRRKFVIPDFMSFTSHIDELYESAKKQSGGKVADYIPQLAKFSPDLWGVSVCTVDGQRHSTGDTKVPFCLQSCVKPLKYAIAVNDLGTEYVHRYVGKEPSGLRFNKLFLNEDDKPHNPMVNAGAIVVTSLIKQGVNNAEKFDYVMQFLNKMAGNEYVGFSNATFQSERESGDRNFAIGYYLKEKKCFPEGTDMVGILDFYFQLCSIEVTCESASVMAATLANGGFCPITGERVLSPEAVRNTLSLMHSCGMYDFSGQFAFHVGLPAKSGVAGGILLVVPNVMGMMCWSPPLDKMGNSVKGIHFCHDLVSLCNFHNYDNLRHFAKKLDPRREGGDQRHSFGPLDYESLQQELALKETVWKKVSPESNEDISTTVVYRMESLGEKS

[2] = system: A549 cells; assay: Proliferation Assay (A549 viability, Cell Titer Fluor, 72 hours); assay type: cell-based; details: read-out: EC50 against A549 cell proliferation

## Cc1cccc(CNC(=O)c2nnc(N3CCC(c4ccc(NC(=O)Cc5cccc(C)n5)nn4)C3)s2)n1 (stereo not shown) [Example 50, 5-(3-(6-(2-(6-methylpyridin-2-yl)acetamido)pyridazin-3-yl)pyrrolidin-1-yl)-N-((6-methylpyridin-2-yl)methyl)-1,3,4-thiadiazole-2-carboxamide]
[1]
  IC50: < 100 nM
[2]; Homo sapiens
  EC50: < 100 nM

## Cc1cc(OC2CC(F)(F)C2)cc(CC(=O)Nc2ccc(C3CCN(c4nnc(C(=O)NCc5ccccn5)s4)C3)nn2)n1 (stereo not shown) [Example 51, 5-(3-(6-(2-(4-(3,3-difluorocyclobutoxy)-6-methylpyridin-2-yl)acetamido)pyridazin-3-yl)pyrrolidin-1-yl)-N-(pyridin-2-ylmethyl)-1,3,4-thiadiazole-2-carboxamide]
[1]
  IC50: < 100 nM
[2]; Homo sapiens
  EC50: < 100 nM

## Cc1cc(OC2CC(F)(F)C2)cc(CC(=O)Nc2ccc(C3CCN(c4nnc(C(=O)NCc5cc(C(F)(F)F)ccn5)s4)C3)nn2)n1 (stereo not shown) [Example 52, 5-(3-(6-(2-(4-(3,3-difluorocyclobutoxy)-6-methylpyridin-2-yl)acetamido)pyridazin-3-yl)pyrrolidin-1-yl)-N-((4-(trifluoromethyl)pyridin-2-yl)methyl)-1,3,4-thiadiazole-2-carboxamide]
[1]
  IC50: < 100 nM
[2]; Homo sapiens
  EC50: < 100 nM

## Cc1cccc(CNC(=O)c2nnc(N3CCC(c4ccc(NC(=O)Cc5cc(OC6CC(F)(F)C6)cc(C)n5)nn4)C3)s2)n1 (stereo not shown) [Example 53, 5-(3-(6-(2-(4-(3,3-difluorocyclobutoxy)-6-methylpyridin-2-yl)acetamido)pyridazin-3-yl)pyrrolidin-1-yl)-N-((6-methylpyridin-2-yl)methyl)-1,3,4-thiadiazole-2-carboxamide]
[1]
  IC50: < 100 nM
[2]; Homo sapiens
  EC50: < 100 nM

## N-(pyridin-2-ylmethyl)-5-(1-(6-(2-(3-(trifluoromethoxy)phenyl)acetamido)pyridazin-3-yl)pyrrolidin-3-yl)-1,3,4-thiadiazole-2-carboxamide-2,2,2-trifluoroacetate [Example 10]
[1]
  IC50: < 100 nM
[2]
  EC50: 100 to 500 nM

From patent US10738043B2, “GLS1 inhibitors for treating disease” (Board of Regents, The University of Texas System, priority 2015, dated 2020)
